Experimental findings from patent publication US6710048B2, “Pyrazine derivatives as modulators of tyrosine kinases” (Ortho-McNeil Pharmaceutical, Inc., priority 2000, dated 2004) are described below.

Test [1] deals with SK-OV-3 ovarian adenocarcinoma. Kind of test: Cell proliferation assay (14C-thymidine incorporation), SK-OV-3. The class given is cell-based. The following applies: Homo sapiens, read-out: Inhibition of cell proliferation IC50. As to the method: (§1) The ability of a test compound to inhibit the proliferation of cell growth was determined by measuring incorporation of ^14C-labelled thymidine into newly synthesized DNA within the cells. This method was used on cell lines derived from carcinomas originating from several tissues such as HeLa cervical adenocarcinoma (American Type Culture Collection (ATCC), Virginia, Cat. #CCL-2), A375 malignant melanoma (ATCC CRL-1619), SK-OV-3 ovarian adenocarcinoma (ATCC HTB-77) HCT-116 colon carcinoma (CCL-247) and PC-3 prostate adenocarcinoma (ATCC CRL-1435). The method was also used on primary cells such as HUVEC endothelial cells (ATCC CRL-1730). In this way the effect of a compound on cell growth of cells with many different phenotypes can be determined. Cells were trypsinized and counted and 3000-8000 cells were added to each well of a 96-well CytoStar tissue culture treated scintillating microplate (Amersham #RPNQ0160) in complete medium in a volume of 100 μl. Cells were incubated for 24 hours in complete medium at 37° C. in an atmosphere containing 5% CO2.
(§2) Next, 1 μl of test compound in 100% DMSO was added to the wells of the plate. DMSO only was added to control wells. Cells were incubated for 24 more hours in complete medium at 37° C. in an atmosphere containing 5% CO2. Methyl ^14C-thymidine 56 mCi/mmol (NEN #NEC568 or Amersham #CFA532) was diluted in complete medium and 0.2 μCi/well was added to each well of the CytoStar plate in a volume of 20 μl. The plate was incubated for 24 hours at 37° C. plus 5% CO2 in drug plus ^14C-thymidine. The contents of the plate were discarded into a ^14C radioactive waste container by inverting the plate and the plate was washed twice with 200 μl PBS. 200 μl of PBS is then added to each well. The top of the plate was sealed with a transparent plate sealer and a white plate backing sealer (Packard #6005199) was applied to the bottom of the plate. The degree of Methyl ^14C-thymidine incorporation was quantified on a Packard Top Count.
Background: Uptake of a labelled nucleoside into DNA is a usual measure of proliferation.

In test [2] the test system is PC-3 prostate adenocarcinoma. Put plainly: Cell proliferation assay (14C-thymidine incorporation), PC-3. The class given is cell-based. The conditions noted are these: Homo sapiens, read-out: Inhibition of cell proliferation IC50. As to the method: as §1, §2
The test system of test [3] is HeLa cervical adenocarcinoma. Put plainly: Cell proliferation assay (14C-thymidine incorporation), HeLa. The test is classed as cell-based. The following applies: Homo sapiens, read-out: Inhibition of cell proliferation IC50. As to the method:
as §1, §2

The target of test [4] is T1, VEGF-R (vascular endothelial growth factor receptor-2) (Rattus norvegicus, UniProt O08775).
T1 construct: polyhistidine (6xHis) (N)
T1 sequence (O08775 786-1343): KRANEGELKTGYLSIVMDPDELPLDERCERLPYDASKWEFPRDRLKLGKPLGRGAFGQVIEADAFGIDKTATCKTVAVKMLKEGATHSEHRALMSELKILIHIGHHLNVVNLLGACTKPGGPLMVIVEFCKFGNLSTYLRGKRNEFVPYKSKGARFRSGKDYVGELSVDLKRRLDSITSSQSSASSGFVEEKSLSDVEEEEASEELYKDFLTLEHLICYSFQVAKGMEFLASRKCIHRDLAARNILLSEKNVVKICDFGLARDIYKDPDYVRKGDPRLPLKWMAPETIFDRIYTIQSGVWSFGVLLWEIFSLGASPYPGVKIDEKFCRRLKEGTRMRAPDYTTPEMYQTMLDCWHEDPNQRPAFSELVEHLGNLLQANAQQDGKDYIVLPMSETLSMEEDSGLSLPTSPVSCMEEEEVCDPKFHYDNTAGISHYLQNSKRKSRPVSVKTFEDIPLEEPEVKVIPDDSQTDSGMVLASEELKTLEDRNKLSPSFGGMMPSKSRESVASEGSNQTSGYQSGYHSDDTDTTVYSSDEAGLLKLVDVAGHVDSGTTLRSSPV
Put plainly: VEGF-R screening assay (33P FlashPlate kinase assay). The class given is biochemical. The conditions noted are these: Tables 1-3; >10 or >100 = no 50% inhibition at highest dose tested; read-out: VEGF-R IC50. As to the method: A kinase reaction mixture was prepared containing 50 mM Tris-HCl pH=8, 10 mM MgCl2, 0.1 mM NAPO4, 1 mM DTT, 10 μM ATP, 0.025 μM biotinylated peptide substrate and 0.8 μCuries per well ^33P-γ-ATP [2000-3000 Ci/mmol]. 70 μl of the kinase reaction mixture was dispensed into the well of a streptavidin coated FlashPlate™ (Cat. # SMP103, NEN, Boston, Mass.). Then 1 μl of test compound stock in 100% DMSO was added to the wells resulting in a final concentration of 1% DMSO in the reaction with a 100 μl final reaction volume. Next, soluble rat tyrosine kinase containing an N-terminal 6×HIS tag was diluted in 50 mM Tris-HCl pH=8.0, 0.1% BSA at a concentration of 5 ng per microliter and 30 μl (150 ng enzyme per test well) was added to each well to initiate the reaction. The reaction was incubated for one hour at 30° C. At the end of the 1-hour incubation, the reaction was terminated by aspirating the reaction mixture from the plate and washing the wells twice with PBS containing 100 mM EDTA. The PLCI biotinylated peptide substrate becomes immobilized on the Flashplate™ and the incorporation of ^33P-γ-ATP was measured by reading the plate on a scintillation counter. Inhibition of the enzymatic activity of the VEGF-R was measured by observing a reduced amount of ^33P-γ-ATP incorporated into the immobilized peptide.
(§3) The term n.d. means not tested.
(§4) Assays to test compound inhibition of other kinases were preformed using methods that measure the amount of phosphorylation of a biotinylated peptide substrate. Biotinylated peptide substrates were selected from the literature as appropriate for the enzyme being evaluated. The general procedure used to assay for kinase activity is as follows: A kinase reaction mix was prepared in 50 mM Tris-HCl pH=8, 10 mM MgCl2, 0.1 mM NaVO4, 1 mM DTT, 5-10 μM ATP, 0.25-1 μM biotinylated peptide substrate, 0.2-0.8 μCuries per well ^33P-γ-ATP [2000-3000 Ci/mmol]. Assay conditions vary slightly for each protein kinase, for example, insulin receptor kinase requires 10 mM MnCl2 for activity and Calmodulin-dependent protein kinase requires calmodulin and 2 mM CaCl2. The reaction mixture was dispensed into the wells of a streptavidin coated Flashplate and 1 μl drug stock in 100% DMSO was added to a 100 μl reaction volume resulting in a final concentration of 1% DMSO in the reaction. Enzyme was diluted in 50 mM Tris-HCl pH=8.0, 0.1% BSA and added to each well. The reaction was incubated for one hour at 30° C. in the presence of compound. After one hour the reaction mix was aspirated from the plate and the plate was washed with PBS containing 100 mM EDTA. The plate was read on a scintillation counter to determine ^33P-γ-ATP incorporated into the immobilized peptide. Test compounds were assayed in duplicate at 8 concentrations [100 tM, 10 μM, 1 μM, 100 nM, 10 nM, 1 nM, 100 μM, 10 μM]. A maximum and minimum signal for the assay was determined on each plate. The IC50 was calculated from the dose response curve of the percent inhibition of the maximum signal in the assay according to the formula [max signal−background/test compound signal−background (100)=% inhibition] by graphing the percent inhibition against the log concentration of test compound. Known inhibitor compounds appropriate for the kinase being assayed were also included on each plate.
VEGF-R (vascular endothelial growth factor receptor-2) is a fusion protein containing a polyhistidine tag at the N-terminus followed by amino acids 786-1343 of the rat VEGF-R2 kinase domain (GenBank Accession #U93306). CDK1 (cyclin dependent kinase 1) is isolated from insect cells expressing both the human CDK1 catalytic subunit and its positive regulatory subunit cyclin B (New England Biolabs, Beverly, Mass., Cat. #6020). CDK4 (cyclin dependent kinase 4) contains amino acids 769 to 921 of the mouse […] protein found in the GST-retinoblastoma protein construct (Santa Cruz Biotechnology, Santa Cruz, Calif.; Cat. #SC-4112). […]

The target in test [5] is T2, CDK1 (cyclin dependent kinase 1) / cyclin B (Homo sapiens, UniProt P06493).
T2 construct: purchased New England Biolabs 6020; host or cells: insect cells
T2 sequence (P06493 whole entry): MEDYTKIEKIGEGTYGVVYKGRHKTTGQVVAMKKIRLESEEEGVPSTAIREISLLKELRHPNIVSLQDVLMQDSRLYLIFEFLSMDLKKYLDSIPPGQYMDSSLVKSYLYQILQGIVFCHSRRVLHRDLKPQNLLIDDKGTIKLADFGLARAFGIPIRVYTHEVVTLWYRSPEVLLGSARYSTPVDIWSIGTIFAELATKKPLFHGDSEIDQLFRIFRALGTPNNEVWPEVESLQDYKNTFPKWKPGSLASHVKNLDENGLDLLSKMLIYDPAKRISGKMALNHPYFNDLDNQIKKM
T2 sequence (P14635 whole entry partner): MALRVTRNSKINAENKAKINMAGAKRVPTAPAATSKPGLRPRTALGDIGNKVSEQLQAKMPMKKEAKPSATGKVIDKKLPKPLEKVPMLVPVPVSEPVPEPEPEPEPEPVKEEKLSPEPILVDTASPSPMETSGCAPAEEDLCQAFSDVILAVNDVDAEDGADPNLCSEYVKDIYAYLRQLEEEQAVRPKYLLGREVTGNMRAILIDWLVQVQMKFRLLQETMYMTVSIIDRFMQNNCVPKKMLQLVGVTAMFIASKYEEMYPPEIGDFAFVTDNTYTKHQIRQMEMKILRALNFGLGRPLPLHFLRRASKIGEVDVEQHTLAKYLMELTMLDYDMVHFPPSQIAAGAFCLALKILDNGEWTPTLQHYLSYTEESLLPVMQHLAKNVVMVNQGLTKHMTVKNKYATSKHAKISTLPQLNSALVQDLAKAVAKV
Put plainly: CDK1 kinase assay. The class given is biochemical. The following applies: Tables 1-3; >10 or >100 = no 50% inhibition at highest dose tested; read-out: CDK IC50. As to the method: as §3
as §4, with “Test compounds were assayed in duplicate at 8 concentrations [100 tM, 10 μM, 1 μM, 100 nM, 10 nM, 1 nM, 100 μM, 10 μM].” left out
VEGF-R (vascular endothelial growth factor receptor-2) is a fusion protein containing a polyhistidine tag at the N-terminus followed by amino acids 786-1343 of the rat VEGF-R2 kinase domain (GenBank Accession #U93306). CDK1 (cyclin dependent kinase 1) is isolated from insect cells expressing both the human CDK1 catalytic subunit and its positive regulatory subunit cyclin B (New England Biolabs, Beverly, Mass., Cat. #6020). CDK4 (cyclin dependent kinase 4) contains amino acids 769 to 921 of the mouse […] protein found in the GST-retinoblastoma protein construct (Santa Cruz Biotechnology, Santa Cruz, Calif.; Cat. #SC-4112). Insulin Receptor Kinase consists of residues 941-1313 of the cytoplasmic domain of the beta-subunit of the human insulin receptor (BIOMOL, Plymouth Meeting, Pa., Cat. #SE-195). Protein Kinase A is the catalytic subunit of cAMP dependent protein kinase-A purified from bovine heart (Upstate Biotech, Lake Placid, N.Y., Cat#14-114). PKC (protein kinase-C) is the gamma or beta isoform of the human protein produced in insect cells (BIOMOL, Plymouth Meeting, Pa., Cat. #SE-143). Casein Kinase 1 is a truncation at amino acid 318 of the C-terminal portion of the rat CK1 delta isoform produced in E.coli (New England Biolabs, Beverly, Mass., Cat. #6030). Casein Kinase 2 includes the alpha and beta subunits of the human CK2 protein produced in E.coli (New England Biolabs, Beverly, Mass., Cat. #6010). Calmodulin Kinase (calmodulin-dependent protein kinase 2) is a truncated version of the alpha subunit of the rat protein produced in insect cells (New England Biolabs, Beverly, Mass., Cat. #6060). Glycogen Synthase Kinase-3 is the beta isoform of the rabbit enzyme produced in E. coli (New England Biolabs, Beverly, Mass., Cat. #6040). MAP Kinase is the rat ERK-2 isoform containing a polyhistidine tag at the N-terminus produced in E. coli. and activated by phosphorylation with MEK1 prior to purification (BIOMOL, Plymouth Meeting, Pa., Cat. #SE-137). EGFR (epidermal growth factor receptor) is purified from human A431 cell membranes (Sigma, St. Louis, Mo., Cat.# E3641). […]

Turning to `Clc1cccc(Nc2cncc(-c3cncc(NCCCn4cccn4)c3)n2)c1` [Cmd 75, N-(3-chlorophenyl)-6-[5-[[3-(1H-pyrazol-1-yl)propyl]amino]-3-pyridinyl]-2-pyrazinamine], the IC50 was greater than 10 µM in test [1], 5.34 µM in test [2] and 12.5 µM in test [3].

`Clc1cccc(Nc2cncc(-c3cncc(NCCCn4cncn4)c3)n2)c1` [Cmd 76, N-(3-chlorophenyl)-6-[5-[[3-(1H-1,2,4-triazol-1-yl)propyl]amino]-3-pyridinyl]-2-pyrazinamine]: the IC50 in test [1] is 12.9 µM; in test [3], 4.94 µM.

With `OCCCNc1cncc(-c2cncc(Oc3cccc(Cl)c3)n2)c1` [Cmd 96], the IC50 in test [4] and in test [5] was greater than 10 µM throughout.

On to `COCCOCC(=O)Nc1cncc(-c2cncc(Nc3cccc(Cl)c3)n2)c1` [Cmd 98], for which the IC50 in test [4] is 0.99 µM; in test [5], greater than 10 µM.

Regarding `O=C(COc1ccccc1)Nc1cncc(-c2cncc(Nc3cccc(Cl)c3)n2)c1` [Cmd 99], the IC50 in test [4] and in test [5] was greater than 10 µM in each case.

For `O=C(CCCOc1ccccc1)Nc1cncc(-c2cncc(Nc3cccc(Cl)c3)n2)c1` [Cmd 100], the IC50 in test [4] and in test [5] was greater than 10 µM throughout.

With `O=C(COCc1ccccc1)Nc1cncc(-c2cncc(Nc3cccc(Cl)c3)n2)c1` [Cmd 101], the IC50 in test [4] and in test [5] was greater than 10 µM in each case.

Turning to `CCOCC(=O)Nc1cncc(-c2cncc(Nc3cccc(Cl)c3)n2)c1` [Cmd 102], the IC50 in test [4] was 0.93 µM; in test [5], greater than 10 µM.

Regarding `COCCC(=O)Nc1cncc(-c2cncc(Nc3cccc(Cl)c3)n2)c1` [Cmd 103], the IC50 in test [4] was 0.59 µM; in test [5], greater than 10 µM.

`O=C(CO)Nc1cncc(-c2cncc(Nc3cccc(Cl)c3)n2)c1` [Cmd 105]: the IC50 is 0.41 µM in test [4] and greater than 10 µM in test [5].

With `OCCCNc1cnc(F)c(-c2cncc(Nc3cccc(Cl)c3)n2)c1` [Cmd 106], the IC50 in test [4] was 0.138 to 0.365 µM; in test [5], greater than 10 µM.

For `Nc1ncc(NCCCO)cc1-c1cncc(Nc2cccc(Cl)c2)n1` [Cmd 107], the values for the IC50 in test [4] and in test [5] were 1.36 µM and greater than 10 µM, respectively.

For `CC(=O)Nc1ncc(NCCCO)cc1-c1cncc(Nc2cccc(Cl)c2)n1` [Cmd 109], the IC50 in test [4] and in test [5] was greater than 10 µM throughout.

Consider `OCCCNc1cnc(Cl)c(-c2cncc(Nc3cccc(Cl)c3)n2)c1` [Cmd 110], for which the IC50 in test [4] and in test [5] was greater than 10 µM throughout.

As for `N#Cc1ncc(NCCCO)cc1-c1cncc(Nc2cccc(Cl)c2)n1` [Cmd 111], the IC50 in test [4] and in test [5] was greater than 10 µM throughout.
